The structures appear in SMILES notation.

The test system of this assay is RXF 486L (hypernephroma, poorly differentiated). Nature of the assay: Propidium iodide monolayer cell proliferation assay, RXF 486L. Type of assay: cell-based, human. As to conditions: four days of treatment. As to the method: Working stock solution of PM14 was prepared in DMSO at a concentration of 1.042 mM and small aliquots were stored at −20° C. On each day of an experiment, a frozen aliquot of the working stock solution was thawed and stored at room temperature prior to and during treatment.
Subsequent dilutions were done with complete RPMI 1640 cell culture medium. DMSO stock solutions were first diluted 1:22 (corresponding to 4.5% v/v DMSO). Starting with this solution, serial dilutions in half-log steps with cell culture medium were done using an intermediate dilution plate. Finally, 10 μl taken from the intermediate dilution plate were transferred to 140 μl/well of the cell culture plate. […]
Cell proliferation assay: A modified propidium iodide (PI) based monolayer assay was used to assess the anti-cancer activity of the compounds (Dengler WA, Schulte J, Berger DP, Mertelsmann R, Fiebig HH, Anti-Cancer Drugs 1995, 6: 522-532). Briefly, cells were harvested from exponential phase cultures, counted and plated in 96 well flat-bottom microtiter plates at a cell density of 4,000 to 30,000 cells/well dependent on the cell line's growth rate. […] After an incubation period of 1-2 hours at room temperature, fluorescence (FU) was measured using the Enspire Multimode Plate Reader (excitation A=530 nm, emission A=620 nm) to quantify the amount of attached viable cells. […]

Regarding `COc1c(C)cc2c(c1O)[C@@H]1[C@@H]3[C@@H]4SC[C@]5(N[C@H](CO)Cc6c5[nH]c5ccccc65)C(=O)OC[C@@H](c5c6c(c(C)c(OC(C)=O)c54)OCO6)N3[C@@H](O)[C@H](C2)N1C` [PM14, ECUBECTEDIN], the “IC70, μM (geometric mean)” value worked out at 0.002 µM. The half-inhibitory concentration (IC50) – broadly, the concentration that inhibits the measured activity by half – (Homo sapiens, 96 h, read-out: IC50, μM (geometric mean)) was determined as 0.002 µM.

Source of the values: patent US20240277705A1, “DOSAGE REGIMENS FOR ECUBECTEDIN” (PHARMA MAR S.A., priority 2021, published 2024).
